Literature values, collected in patent US7015235B2, “Acylated piperidine derivatives as melanocortin-4 receptor agonists” (priority 2001, dated 2006).

Tested on: men

For Cc1ccc(N(CC2=NCCN2)c2cccc(O)c2)cc1 [phentolamine], the duration of effect (after an oral dose) is given as 2 h, the onset of action (after an oral dose) is given as 5 to 30 min and the “share of men/patients with adequate response” value (oral) is given as 35–40%.
